Legend:
[1] = system: animal model of pulmonary fibrosis; experiment: Histopathology (Ashcroft score) analysis of lung tissue; assay type: in vivo, mice; conditions: for Fibrotic Index (±SEM): 21st day, 9 individuals
Description: (§1) 70-100 μL of BLM solution (bleomycin 1-3 mg/kg) was administered to a lung of the acclimatized experimental animals using a catheter for 5 days or more. In accordance with the purpose of the test, the test drug was administered 7 days after BLM administration, and the drug was orally administered for 2 weeks until the 21st day of BLM administration. Body weight, SpO2, hydroxyproline, and inflammation cell counts were measured to determine the anti-fibrotic efficacy of the active component.
(§2) As a control group, Nintedanib (hereinafter ‘NIN’) and Pirfenidone (hereinafter ‘PID’), which are standard of care (hereinafter ‘SoC’) for idiopathic pulmonary fibrosis, were used. The effective dose of NIN used was confirmed through in vivo efficacy data in the literature published by Boehringer Ingelheim, which is a NIN development company, and the effective dose of PID was set in terms of mice based on in vivo efficacy (rat) data and 2-week repeated toxicity dose (rat) in FDA Pharmacology Review.
The degree of fibrosis and inflammation of the lung tissue were visually observed through a microscope, and the degree of fibrosis of lung tissue was measured with a Fibrotic Index according to normalized criteria. The higher the Fibrotic Index value, the more severe the degree and symptom of fibrosis. It is interpreted that as the value is lower, the symptom is relieved.
On the 21st day, lung tissue was separated and stained using H&E and MT stain, and observed at 200× magnification. The observed results were scored by Ashcroft (Hubner et al., 2008). The fibrotic index was calculated by dividing the sum of the adjusted Ashcroft field scores by the number of fields tested, and shown in Table 4 and FIG. 3.

[2] = system: animal model of pulmonary fibrosis; experiment: Measurement of total collagen content in lung (INSOLUBLE Collagen Assay); assay type: in vivo, mice; conditions: for collagen content in lung (hydroxyproline ratio value compared with normal group): 21st day
Description: as §1, §2
Pulmonary fibrosis is the accumulation of collagen in the lungs to make it stiff. The main cause of pulmonary fibrosis is the accumulation of collagen, and the degree of progression of fibrosis can be predicted by measuring the collagen content in the lung tissue.
In this experimental example, analysis was performed using INSOLUBLE Collagen Assay (Biocolor, S2000). After sacrifice on the 21st day, the cryopreserved lung tissue was pulverized by adding 100 uL of Fragmentation Reagent, and then, 100 uL of 37% HCl was added and incubated at 65°C. for 3 hours. The contents of the tube were shaken at 30 minute intervals to aid tissue disintegration. After centrifugation, the concentration was adjusted to 100 μL and collagen staining was proceeded to prepare a sample. Absorbance was measured at 560 nm.

[3] = Measurement of change in body weight in BLM-administered mice; assay type: in vivo; conditions: for change in body weight: 21st day
Description: as §1, §2
Body weight is an indirect indicator that can know the degree of improvement in the overall physical condition of the animal model. When the degree of weight loss is small, it can be inferred that the overall physical condition or symptoms of the disease are improved.
The body weight was measured using a scale on the 21st day when the administration was completed, and the results are shown in Table 6 and FIG. 5 below.

[4] = system: animal model of pulmonary fibrosis; experiment: Lung function evaluation (SpO2) in BLM-administered mice; assay type: in vivo; conditions: for SpO2: 2 weeks, 21st day after BLM
Description: as §1, §2
This lung function evaluation is the most direct and important evaluation index that has the greatest influence on the symptoms and quality of life of patients with pulmonary fibrosis, and is an experiment that can most directly show the effect of improving lung function in an animal model of pulmonary fibrosis by measuring the oxygen concentration in the body.
On the 21st day, it was measured with a SpO2 measuring device (Berry, Veterinary Pulse Oximeter) via the abdominal side of the mouse, and the results are shown in Table 2 and FIG. 1.

[5] = system: animal model of pulmonary fibrosis; experiment: Inflammation cell count analysis in BALF; assay type: in vivo, mice; conditions: for Lymphocyte (BALF cell count) / Macrophage (BALF cell count) / Neutrophil (BALF cell count) / Total cell (BALF cell count): 21st day
Description: as §1, §2
Since fibrosis is a chronic inflammatory disease characterized by excessive collagen deposition, the infiltration of inflammatory cells was analyzed to determine the degree of inflammation in the lung tissue.
At the sacrifice on the 21st day of administration, BALF (Bronchoalveolar lavage fluid) cells obtained through airway washing of mice were diluted with 1.05×PBS and attached to a slide, and then the slide was immersed and removed for 30 seconds in the order of 1, 2, 3 diff quick stain solution, and stained. It was counted based on 500 cells. Macrophages are the largest in size, mononuclear, and stained blue. Neutrophils and eosinophils form polynuclear cells, but eosinophils are stained red with eosin and distinguished from neutrophils. Lymphocytes have very less cytoplasm and are small in size as monocytes.

ICR mice = experiment: 2-week repeated dose toxicity test in mice; assay type: in vivo; conditions: for SPLEEN % to BODY WEIGHT / SPLEEN weight / THYMUS % to BODY WEIGHT / THYMUS weight: 2 weeks, male ICR mice
Description: The active component was orally administered to acclimatized ICR mice for 7 days or more for 2 weeks.
After administration for 2 weeks, autopsies were performed on all animals. At autopsy, the weight of each organ was measured.

[6] = Human pharmacokinetics, single administration (SAD); assay type: in vivo; conditions: median; healthy adults, single oral 500 mg, enteric coated tablet, N = 6
Description: (§3) The formulation used in the clinical trial was prepared in the same manner as in Preparation Examples 1 and 2.

healthy adults = experiment: Human administration safety/drug tolerance; assay type: in vivo
Description: as §3
The safety and drug resistance of the compound of the present invention during administration to humans was confirmed in the same manner as in Experimental Example 4.

[7] = Human pharmacokinetics, multiple administration (MAD), Day 14; assay type: in vivo; conditions: for Accumulation ratio based on AUCT: Day 14, N = 6; for AUC(0-t): human, plasma, oral
Description: as §3

[8] = Pharmacokinetic test after single oral administration in ICR mice; assay type: in vivo; conditions: mouse, blood; ICR mice (male), single oral 10 mg/kg, saline
Description: The pharmacokinetic parameters were calculated using Excel® and WinNonlin6.1 software for the blood drug concentration according to the change over time obtained through LC-MS/MS, and changes in the blood concentration of the active component are shown in Table 9 and FIG. 6.

For `COC(=O)c1ccc2c(c1)NC(=O)/C2=C(\Nc1ccc(N(C)C(=O)CN2CCN(C)CC2)cc1)c1ccccc1` [Nintedanib, reference compound], the “Fibrotic Index (±SEM)” value ([1]; Nintedanib 60 mg/kg oral) was 3.1 (±0.6), the “collagen content in lung (hydroxyproline ratio value compared with normal group)” value ([2]; Nintedanib 60 mg/kg oral) was 239.78 and the “change in body weight” value ([3]; Nintedanib 60 mg/kg oral) was −19.44. The SpO2 ([4]; Nintedanib 60 mg/kg oral) was 78.67, the “Lymphocyte (BALF cell count)” value ([5]; Nintedanib 60 mg/kg oral) was 0.68 and the “Macrophage (BALF cell count)” value ([5]; Nintedanib 60 mg/kg oral) was 5.61. For the same compound, the “Neutrophil (BALF cell count)” value ([5]; Nintedanib 60 mg/kg oral) was 1.29 and the “Total cell (BALF cell count)” value ([5]; Nintedanib 60 mg/kg oral) was 7.57.
In the case of `O[C@H]1CCCN[C@@H]1CCCn1cnc2c(Cl)c(Cl)ccc21` [Active component], the “SPLEEN % to BODY WEIGHT” value (ICR mice; 30 mg/kg/day oral) is reported as 0.22%, the SPLEEN weight (ICR mice; 30 mg/kg/day oral) is reported as 0.059 and the “THYMUS % to BODY WEIGHT” value (ICR mice; 30 mg/kg/day oral) is reported as 0.10%. For the same compound, the THYMUS weight (ICR mice; 30 mg/kg/day oral) was 0.026, the “SPLEEN % to BODY WEIGHT” value (ICR mice; 60 mg/kg/day oral) was 0.25% and the SPLEEN weight (ICR mice; 60 mg/kg/day oral) was 0.070. For the same compound, the “THYMUS % to BODY WEIGHT” value (ICR mice; 60 mg/kg/day oral) was 0.11%, the THYMUS weight (ICR mice; 60 mg/kg/day oral) was 0.029 and the “toxicity / abnormal symptoms after repeated administration for 2 weeks” value (ICR mice; 30, 60, 120→90 mg/kg/day oral, ICR mice) was “No toxicity or significant abnormal symptoms”. The “SPLEEN % to BODY WEIGHT” value (ICR mice; 120→90 mg/kg/day oral) was 0.17%, the SPLEEN weight (ICR mice; 120→90 mg/kg/day oral) was 0.046 and the “THYMUS % to BODY WEIGHT” value (ICR mice; 120→90 mg/kg/day oral) was 0.05%. For the same compound, the THYMUS weight (ICR mice; 120→90 mg/kg/day oral) was 0.015, the “organ weight of spleen and thymus” value (ICR mice; administration group of 30 mg/kg/day or more) was “slight weight loss tendency” and the “tissue improvement effect compared with NIN and PID” value ([1]; 10 mg/kg) was “tissue improvement effect equivalent to or greater than that of NIN”. For the same compound, the “tissue improvement effect compared with NIN and PID” value ([1]; 30 mg/kg) was “tissue improvement effect equivalent to or greater than that of NIN”, the “Fibrotic Index (±SEM)” value ([1]; Active component 3 mg/kg oral) was 4.6 (±0.3) and the “Fibrotic Index (±SEM)” value ([1]; Active component 10 mg/kg oral) was 2.7 (±0.6). The “Fibrotic Index (±SEM)” value ([1]; Active component 30 mg/kg oral) was 2.8 (±0.4), the “content of collagen in the lung compared to Vehicle” value ([2]; 10 mg/kg) was “significantly reduced” and the “content of collagen in the lung compared to Vehicle” value ([2]; 30 mg/kg) was “significantly reduced”. For the same compound, the “collagen content in lung (hydroxyproline ratio value compared with normal group)” value ([2]; Active component 3 mg/kg oral) was 253.56, the “collagen content in lung (hydroxyproline ratio value compared with normal group)” value ([2]; Active component 10 mg/kg oral) was 217.22 and the “collagen content in lung (hydroxyproline ratio value compared with normal group)” value ([2]; Active component 30 mg/kg oral) was 171.33. For the same compound, the “degree of body weight loss compared with Vehicle group” value ([3]; 10 mg/kg) was “improved”, the “degree of body weight loss compared with Vehicle group” value ([3]; 30 mg/kg) was “improved” and the “change in body weight” value ([3]; Active component 3 mg/kg oral) was −22.44. The “change in body weight” value ([3]; Active component 10 mg/kg oral) was −19.11, the “change in body weight” value ([3]; Active component 30 mg/kg oral) was −16.78 and the “oxygen permeation function improved compared with Vehicle” value ([4]; 10 mg/kg) was ≥ 18%. For the same compound, the “oxygen permeation function improved compared with Vehicle” value ([4]; 30 mg/kg) was ≥ 28%, the SpO2 ([4]; Active component 3 mg/kg oral) was 75.00 and the SpO2 ([4]; Active component 10 mg/kg oral) was 77.89. The SpO2 ([4]; Active component 30 mg/kg oral) was 81.33, the tmax [6] was 3.01 h and the “serious abnormal signs or side effects in clinical trial” value (healthy adults; 72 healthy adults, single 100-600 mg and multiple 25-200 mg twice a day) was “no serious abnormal signs or side effects”. For the same compound, the “most frequent adverse reactions” value (healthy adults; single administration, healthy adults) was “gastrointestinal adverse events including nausea, vomiting, diarrhea and abdominal pain”, the “number of Neutrophil cells decreased compared to Vehicle” value ([5]; 10 mg/kg) was ≥ 20% and the “total cell level improved compared to Vehicle” value ([5]; 10 mg/kg) was ≥ 20%. The “number of Neutrophil cells decreased compared to Vehicle” value ([5]; 30 mg/kg) was ≥ 60%, the “total cell level improved compared to Vehicle” value ([5]; 30 mg/kg) was ≥ 30% and the “Lymphocyte (BALF cell count)” value ([5]; Active component 3 mg/kg oral) was 0.79. The “Macrophage (BALF cell count)” value ([5]; Active component 3 mg/kg oral) was 7.80, the “Neutrophil (BALF cell count)” value ([5]; Active component 3 mg/kg oral) was 1.74 and the “Total cell (BALF cell count)” value ([5]; Active component 3 mg/kg oral) was 10.32. For the same compound, the “Lymphocyte (BALF cell count)” value ([5]; Active component 10 mg/kg oral) was 0.51, the “Macrophage (BALF cell count)” value ([5]; Active component 10 mg/kg oral) was 5.60 and the “Neutrophil (BALF cell count)” value ([5]; Active component 10 mg/kg oral) was 1.54. For the same compound, the “Total cell (BALF cell count)” value ([5]; Active component 10 mg/kg oral) was 7.66, the “Lymphocyte (BALF cell count)” value ([5]; Active component 30 mg/kg oral) was 0.46 and the “Macrophage (BALF cell count)” value ([5]; Active component 30 mg/kg oral) was 4.91. The “Neutrophil (BALF cell count)” value ([5]; Active component 30 mg/kg oral) was 0.82, the “Total cell (BALF cell count)” value ([5]; Active component 30 mg/kg oral) was 6.19 and the “Accumulation ratio based on AUCT” value ([7]; 25 mg tablet twice a day) was 1.94. The “Accumulation ratio based on AUCT” value ([7]; 50 mg tablet twice a day) was 2.33, the AUCT ([7]; 100 mg tablet twice a day, Day 14, 12 hour dosing interval, N = 6) was 617.40 ng·h/mL and the “Accumulation ratio based on AUCT” value ([7]; 100 mg tablet twice a day) was 1.88. For the same compound, the “Accumulation ratio based on AUCT” value ([7]; 200 mg tablet twice a day) was 3.75, the AUC(0-t) ([7]; 25 mg tablet twice a day, Day 14, 12 hour dosing interval, N = 6) was 183 ng·h/mL and the AUC(0-t) ([7]; 50 mg tablet twice a day, Day 14, 12 hour dosing interval, N = 6) was 429 ng·h/mL. For the same compound, the AUC(0-t) ([7]; 200 mg tablet twice a day, Day 14, 12 hour dosing interval, N = 6) was 3010 ng·h/mL and the AUC [8] was 1190 ng·h/mL.
In the case of `Cc1ccc(=O)n(-c2ccccc2)c1` [Pirfenidone, reference compound], the “Fibrotic Index (±SEM)” value ([1]; Pirfenidone 200 mg/kg oral) is reported as 4.1 (±0.3), the “collagen content in lung (hydroxyproline ratio value compared with normal group)” value ([2]; Pirfenidone 200 mg/kg oral) is reported as 177.44 and the “change in body weight” value ([3]; Pirfenidone 200 mg/kg oral) is reported as −14.67. The SpO2 ([4]; Pirfenidone 200 mg/kg oral) was 82.00, the “Lymphocyte (BALF cell count)” value ([5]; Pirfenidone 200 mg/kg oral) was 0.46 and the “Macrophage (BALF cell count)” value ([5]; Pirfenidone 200 mg/kg oral) was 5.01. For the same compound, the “Neutrophil (BALF cell count)” value ([5]; Pirfenidone 200 mg/kg oral) was 0.68 and the “Total cell (BALF cell count)” value ([5]; Pirfenidone 200 mg/kg oral) was 6.14.
